Counter-ions that a name gives are not always drawn.
Key:
[1] = system: green kyllinga; assay: Test Example 2: pot test on green kyllinga, visual growth inhibition; format: in vivo, Kyllinga brevifolia var. leiolepis; conditions: Cyperus brevifolius, read-out: Growth inhibition rate (%) of green kyllinga, Measured value
Procedure: (§1) Upland field soil was put into a 1/1,000,000 ha pot, and tubers of purple nutsedge (Cyperus rofundus L.) were planted. 33 days later, when purple nutsedge reached a 6 to 7 leaf stage, a predetermined amount of water dispersible granules containing flazasulfuron as an active ingredient (tradename: SHIBAGEN DF, manufactured by Ishihara Sangyo Kaisha, Ltd.) was diluted with water (corresponding to 200 L/ha) containing 0.02 vol % of an agricultural adjuvant (tradename: Kusa-rino, manufactured by Nihon Nohyaku Co., Ltd.) and applied by foliar application by means of a small sprayer, and a predetermined amount of granules containing chlorthiamid as an active ingredient (tradename: GF Ben-pole granules, manufactured by Suimitomo Chemical Garden Products Inc.) was applied by granule application.
(§2) Measured value of growth inhibition rate(%)(evaluated value by visual observation)=0(equivalent to non-treated area) to 100(complete kill)
(§3) That is, the measured value of growth inhibition rate (%) was rated to be 0% in a case where the level of the growth inhibition of weeds was the same in the non-treated area and to be 100% in a case where the growth was completed inhibited and the weeds were killed.
Upland field soil was put into a 1/1,000,000 ha pot, and rhizomes of green kyllinga (Kyllinga brevifolia var. leiolepis) were planted. 46 days later, when the height of green kyllinga reached 4 to 7 cm, a predetermined amount of SHIBAGEN DF, (tradename) and a predetermined amount of GF Ben-pole (tradename) were applied in the same manner as in Test Example 1.

[2] = system: green kyllinga; assay: Test Example 5: pot test, sodium salt of trifloxysulfuron and chlorthiamid, visual growth inhibition; format: in vivo, Kyllinga brevifolia var. leiolepis; conditions: Cyperus brevifolius, 42nd day after application, height 6 to 8 cm, read-out: Growth inhibition rate (%) of green kyllinga, Measured value
Source text: as §2, §3
(§4) Upland field soil was put into a 1/1,000,000 ha pot, and tubers of purple nutsedge were planted. When purple nutsedge reached a 13 leaf stage, a predetermined amount of SHIBAGEN DF (tradename) and a predetermined amount of a wettable powder containing dichlobenil as an active ingredient (tradename: Kasoron wettable powder, manufactured by AGRO-KANESHO Co., Ltd.) were diluted with water (corresponding to 2,000 L/ha) containing 0.02 vol % of Kusa-rino (tradename) and applied by foliar application by means of a small sprayer.
Upland field soil was put into a 1/1,000,000 ha pot, rhizomes of green kyllinga (Kyllinga brevifolia var. leiolepis) were planted.

[3] = system: purple nutsedge; assay: Test Example 3: pot test, foliar application of herbicidal composition, visual growth inhibition; format: in vivo, Cyperus rofundus L; conditions: Cyperus, read-out: Growth inhibition rate (%) of purple nutsedge, Measured value
Source text: as §2, §3
Upland field soil was put into a 1/1,000,000 ha pot, and tubers of purple nutsedge (Cyperus rofundus L) were planted. 54 days later, when purple nutsedge reached a height of 25 to 30 cm, a predetermined amount of a herbicidal composition was diluted with water (corresponding to 200 L/ha) containing 0.02 vol % of an agricultural adjuvant (tradename: Kusa-rino, manufactured by Nihon Nohyaku Co., Ltd.) and applied by foliar application by means of a small sprayer.
On the 42nd day after application, the state of growth of the plant was visually observed, and in the same manner as in Test Example 1, the measured growth inhibition rate (%) and the calculated growth inhibition rate (%) obtained by the Colby's formula are shown in Table 3.

[4] = system: purple nutsedge; assay: Test Example 1: pot test, foliar application of flazasulfuron and granule application of chlorthiamid, visual growth inhibition; format: in vivo, Cyperus rofundus L.; conditions: Cyperus, read-out: Growth inhibition rate (%) of purple nutsedge, Measured value
Source text: When the herbicidal activity in a case where two active ingredients are combined, is larger than the simple sum (the expected activity) of the respective herbicidal activities of the two active ingredients, it is called a synergistic effect. The activity expected by the combination of two active ingredients can be calculated as follows (Colby S. R., “Weed”, vol. 15, p. 20-22, 1967).
as §1, §2, §3

[5] = system: green kyllinga; assay: Test Example 6: pot test, sodium salt of trifloxysulfuron and chlorthiamid or dichlobenil, visual growth inhibition; format: in vivo, Kyllinga brevifolia var. leiolepis; conditions: Cyperus brevifolius, 42nd day after application, height 10 cm, read-out: Growth inhibition rate (%) of green kyllinga, Measured value; for inhibition at 5000 g/ha: dose 5,000 g/ha
Source text: as §2, §3, §4
Upland field soil was put into a 1/1,000,000 ha pot, rhizomes of green kyllinga (Kyllinga brevifolia var. leiolepis) were planted. When the height of green kyllinga reached 10 cm, a predetermined amount of Monument water dispersible granules (tradename) and a predetermined amount of chlorthiamid (reagent, manufactured by Wako Pure Chemical Industries, Ltd.) or Kasoron wet powder (tradename) were applied in the same manner as in Test Example 4.

[6] = system: purple nutsedge; assay: Test Example 4: pot test, foliar application of flazasulfuron and dichlobenil wettable powder, visual growth inhibition; format: in vivo; conditions: Cyperus
Source text: as §2, §3, §4
On the 42nd day after application, the state of growth of purple nutsedge was visually observed, and in the same manner as in Test Example 1, the measured growth inhibition rate (%) and the calculated growth inhibition rate (%) obtained by the Colby's formula are shown in Table 4.

[7] = read-out: Growth inhibition rate (%) of purple nutsedge, Measured value

NC(=S)c1c(Cl)cccc1Cl [Chlorthiamid, 2,6-dichlorothiobenzamide]
inhibition at 1000 g/ha [1]: 20% | inhibition at 5000 g/ha [1]: 65% | inhibition at 1000 g/ha ([2]; dose 1,000 g/ha): 18% | inhibition at 10000 g/ha ([2]; dose 10,000 g/ha): 30% | inhibition at 500 g/ha [3]: 0% | inhibition at 1000 g/ha [3]: 0% | inhibition at 2000 g/ha [3]: 18% | inhibition at 4000 g/ha [3]: 33% | inhibition at 1000 g/ha [4]: 35% | inhibition at 2000 g/ha [4]: 33% | inhibition at 4000 g/ha [4]: 50% | inhibition at 6000 g/ha [4]: 69% | inhibition at 5000 g/ha [5]: 58%

N#Cc1c(Cl)cccc1Cl [Dichlobenil, 2,6-dichlorobenzonitrile]
inhibition at 500 g/ha [3]: 10% | inhibition at 1000 g/ha [3]: 23% | inhibition at 2000 g/ha [3]: 10% | inhibition at 4000 g/ha [3]: 33% | inhibition at 500 g/ha [6, 7]: 10% | inhibition at 4000 g/ha [6, 7]: 33% | inhibition at 5000 g/ha [5]: 58%

COc1cc(OC)nc(NC(=O)NS(=O)(=O)c2ncccc2C(F)(F)F)n1 [Flazasulfuron, 1-(4,6-dimethoxypyrimidin-2-yl)-3-(3-trifluoromethyl-2-pyridylsulfonyl)urea]
inhibition at 50 g/ha ([1]; dose 50 g/ha, 54th day after application, height 4 to 7 cm): 80% | inhibition at 25 g/ha ([3]; dose 25 g/ha, 42nd day after application, height 25 to 30 cm): 87% | inhibition at 50 g/ha ([3]; dose 50 g/ha, 42nd day after application, height 25 to 30 cm): 98% | inhibition at 25 g/ha ([4]; dose 25 g/ha, 36th day after application, 6 to 7 leaf stage): 18% | inhibition at 50 g/ha ([4]; dose 50 g/ha, 36th day after application, 6 to 7 leaf stage): 73% | inhibition at 25 g/ha ([6]; dose 25 g/ha, 42nd day after application, 13 leaf stage, read-out: Growth inhibition rate (%) of Purple nutsedge, Measured value): 87%

COc1cc(OC)nc(NC(=O)NS(=O)(=O)c2ncccc2OCC(F)(F)F)n1 [Sodium salt of trifloxysulfuron, 1-(4,6-dimethoxypyrimidin-2-yl)-3-[3-(2,2,2-trifluoroethoxy)-2-pyridylsulfonyl]urea]
inhibition at 10 g/ha ([2]; dose 10 g/ha): 0% | inhibition at 200 g/ha ([2]; dose 200 g/ha): 25% | inhibition at 45 g/ha ([5]; dose 45 g/ha): 0%
